# Earlier results, collected in patent US20230372346A1, “TREATMENT REGIMENS FOR EXON-20 INSERTION MUTANT EGFR CANCERS” (CULLINAN PEARL CORP., priority 2020, published 2023).
# Conditions: human, in vivo; cited from earlier work
compound,measurement,value
"C=CC(=O)Nc1cc(Nc2ncc(C(=O)OC(C)C)c(-c3cn(C)c4ccccc34)n2)c(OC)cc1N(C)CCN(C)C [TAK-788, mobocertinib]",toxicity in the lowest-dose cohort where stable diseases or partial responses were observed,presented both grade 3 or above TRAEs and dose-limiting toxicities
